Laboratory results: patent publication US12209087B2, “AKT1 modulators” (Alterome Therapeutics, Inc., priority 2022, dated 2025)

Target: T1, full length AKT E17K (Homo sapiens, UniProt P31749, E17K)
T1 construct: host or cells: HEK-293 (ATCC CRL-1573)
Test: NanoBRET Target Engagement (TE) Assay
Type: cell-based
Conditions: competitive displacement of tracer in cells, read-out: AKT1 E17K IC50
Procedure, shortened: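 Compound and tracer incubated 2 h before luminescence at donor 450 nm and acceptor 600 nm, with extracellular signal inhibited. EC50 by sigmoidal variable-slope regression.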

T1 sequence (P31749 whole entry E17K): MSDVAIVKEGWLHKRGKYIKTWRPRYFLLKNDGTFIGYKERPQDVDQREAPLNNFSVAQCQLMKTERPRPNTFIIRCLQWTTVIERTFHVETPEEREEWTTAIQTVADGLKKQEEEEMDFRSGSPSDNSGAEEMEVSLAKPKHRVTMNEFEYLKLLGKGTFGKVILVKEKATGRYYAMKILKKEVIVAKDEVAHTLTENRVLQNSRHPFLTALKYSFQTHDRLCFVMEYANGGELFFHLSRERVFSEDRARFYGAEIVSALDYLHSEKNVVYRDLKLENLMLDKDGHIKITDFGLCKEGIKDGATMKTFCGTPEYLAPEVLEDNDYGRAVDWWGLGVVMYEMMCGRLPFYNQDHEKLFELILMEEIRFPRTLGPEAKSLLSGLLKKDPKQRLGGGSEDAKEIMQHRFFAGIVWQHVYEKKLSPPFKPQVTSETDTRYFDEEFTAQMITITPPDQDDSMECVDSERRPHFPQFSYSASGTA

Row | Structure (SMILES) | IC50 [nM]
1 | N#Cc1nccc(N2CCN(Cc3ccc(-n4c(-c5cccnc5N)nc5ccc(-c6ccc(=O)[nH]c6)nc54)cc3)CC2)n1 [Example 332, 4-(4-(4-(2-(2-Aminopyridin-3-yl)-5-(6-oxo-1,6-dihydropyridin-3-yl)-3H-imidazo[4,5-b]pyridin-3-yl)benzyl)piperazin-1-yl)pyrimidine-2-carbonitrile] | 600 to 10000
2 | N#Cc1ccnc(N2CCN(Cc3ccc(-n4c(-c5cccnc5N)nc5ccc(-c6ccc(Cl)cc6)nc54)cc3)CC2)n1 [Example 343, 2-(4-(4-(2-(2-Aminopyridin-3-yl)-5-(4-chlorophenyl)-3H-imidazo[4,5-b]pyridin-3-yl)benzyl)piperazin-1-yl)pyrimidine-4-carbonitrile] | 60 to 600
3 | N#Cc1cc(N2CCN(Cc3ccc(-n4c(-c5cccnc5N)nc5ccc(-c6ccc(Cl)cc6)nc54)cc3)CC2)ncn1 [Example 344, 6-(4-(4-(2-(2-Aminopyridin-3-yl)-5-(4-chlorophenyl)-3H-imidazo[4,5-b]pyridin-3-yl)benzyl)piperazin-1-yl)pyrimidine-4-carbonitrile] | 60 to 600
4 | CN1CCN(c2ccc3nc(-c4cccnc4N)n(-c4ccc(CN5CCN(c6ccnc(C#N)n6)CC5)cc4)c3n2)CCC1=O [Example 345, 4-(4-(4-(2-(2-Aminopyridin-3-yl)-5-(4-methyl-5-oxo-1,4-diazepan-1-yl)-3H-imidazo[4,5-b]pyridin-3-yl)benzyl)piperazin-1-yl)pyrimidine-2-carbonitrile] | 60 to 600
5 | CN1CCN(c2ccc3nc(-c4cccnc4N)n(-c4ccc(CN5CCC(Nc6ccnc(C#N)n6)CC5)cc4)c3n2)CCC1=O [Example 346, 4-((1-(4-(2-(2-Aminopyridin-3-yl)-5-(4-methyl-5-oxo-1,4-diazepan-1-yl)-3H-imidazo[4,5-b]pyridin-3-yl)benzyl)piperidin-4-yl)amino)pyrimidine-2-carbonitrile] | 60 to 600
6 | N#Cc1ccnc(NC2CCN(Cc3ccc(-n4c(-c5cccnc5N)nc5ccc(N6CCCNC(=O)C6)nc54)cc3)CC2)n1 [Example 347, 2-((1-(4-(2-(2-Aminopyridin-3-yl)-5-(3-oxo-1,4-diazepan-1-yl)-3H-imidazo[4,5-b]pyridin-3-yl)benzyl)piperidin-4-yl)amino)pyrimidine-4-carbonitrile] | 60 to 600
7 | Cn1cc(-c2ccc3nc(-c4cccnc4N)n(-c4ccc(CN5CCN(c6ccnc(C#N)n6)CC5)cc4)c3n2)ccc1=O [Example 348, 4-(4-(4-(2-(2-Aminopyridin-3-yl)-5-(1-methyl-6-oxo-1,6-dihydropyridin-3-yl)-3H-imidazo[4,5-b]pyridin-3-yl)benzyl)piperazin-1-yl)pyrimidine-2-carbonitrile] | 60 to 600
8 | N#Cc1ccnc(NC2CCN(Cc3ccc(-n4c(-c5cccnc5N)nc5ccc(-c6ccc(F)cc6)nc54)cc3)CC2)n1 [Example 352, 2-((1-(4-(2-(2-Aminopyridin-3-yl)-5-(4-fluorophenyl)-3H-imidazo[4,5-b]pyridin-3-yl)benzyl)piperidin-4-yl)amino)pyrimidine-4-carbonitrile] | 15 to 60
9 | N#Cc1nccc(NC2CCN(Cc3ccc(-n4c(-c5cccnc5N)nc5ccc(-c6cccc(Cl)c6)nc54)cc3)CC2)n1 [Example 353, 4-((1-(4-(2-(2-Aminopyridin-3-yl)-5-(3-chlorophenyl)-3H-imidazo[4,5-b]pyridin-3-yl)benzyl)piperidin-4-yl)amino)pyrimidine-2-carbonitrile] | 60 to 600
10 | Cn1cc(-c2ccc3nc(-c4cccnc4N)n(-c4ccc(CN5CCN(c6nccc(C#N)n6)CC5)cc4)c3n2)ccc1=O [Example 354, 2-(4-(4-(2-(2-Aminopyridin-3-yl)-5-(1-methyl-6-oxo-1,6-dihydropyridin-3-yl)-3H-imidazo[4,5-b]pyridin-3-yl)benzyl)piperazin-1-yl)pyrimidine-4-carbonitrile] | 60 to 600
11 | Cn1cc(-c2ccc3nc(-c4cccnc4N)n(-c4ccc(CN5CCC(Nc6ccnc(C#N)n6)CC5)cc4)c3n2)ccc1=O [Example 355, 4-((1-(4-(2-(2-Aminopyridin-3-yl)-5-(1-methyl-6-oxo-1,6-dihydropyridin-3-yl)-3H-imidazo[4,5-b]pyridin-3-yl)benzyl)piperidin-4-yl)amino)pyrimidine-2-carbonitrile] | 15 to 60
12 | Cn1cc(-c2ccc3nc(-c4cccnc4N)n(-c4ccc(CN5CCC(Nc6nccc(C#N)n6)CC5)cc4)c3n2)ccc1=O [Example 356, 2-((1-(4-(2-(2-Aminopyridin-3-yl)-5-(1-methyl-6-oxo-1,6-dihydropyridin-3-yl)-3H-imidazo[4,5-b]pyridin-3-yl)benzyl)piperidin-4-yl)amino)pyrimidine-4-carbonitrile] | 60 to 600
13 | N#Cc1nccc(NC2CCN(Cc3ccc(-n4c(-c5cccnc5N)nc5ccc(-c6cccc(F)c6)nc54)cc3)CC2)n1 [Example 357, 4-((1-(4-(2-(2-Aminopyridin-3-yl)-5-(3-fluorophenyl)-3H-imidazo[4,5-b]pyridin-3-yl)benzyl)piperidin-4-yl)amino)pyrimidine-2-carbonitrile] | 15 to 60

Further lines, results first:

Row | IC50 [nM] | Structure (SMILES)
14 | 15 to 60 | N#Cc1ccnc(N2CCN(Cc3ccc(-n4c(-c5cccnc5N)nc5ccc(-c6cccc(=O)[nH]6)nc54)cc3)CC2)n1 [Example 333, 2-(4-(4-(2-(2-Aminopyridin-3-yl)-5-(6-oxo-1,6-dihydropyridin-2-yl)-3H-imidazo[4,5-b]pyridin-3-yl)benzyl)piperazin-1-yl)pyrimidine-4-carbonitrile]
15 | 15 to 60 | N#Cc1cc(N2CCN(Cc3ccc(-n4c(-c5cccnc5N)nc5ccc(-c6cccc(=O)[nH]6)nc54)cc3)CC2)ncn1 [Example 334, 6-(4-(4-(2-(2-Aminopyridin-3-yl)-5-(6-oxo-1,6-dihydropyridin-2-yl)-3H-imidazo[4,5-b]pyridin-3-yl)benzyl)piperazin-1-yl)pyrimidine-4-carbonitrile]
16 | < 15 | N#Cc1nccc(NC2CCN(Cc3ccc(-n4c(-c5cccnc5N)nc5ccc(-c6ccccc6C#N)nc54)cc3)CC2)n1 [Example 335, 4-((1-(4-(2-(2-Aminopyridin-3-yl)-5-(2-cyanophenyl)-3H-imidazo[4,5-b]pyridin-3-yl)benzyl)piperidin-4-yl)amino)pyrimidine-2-carbonitrile]
17 | < 15 | CN(C(=O)c1ccnc(C#N)n1)C1CCN(Cc2ccc(-n3c(-c4cccnc4N)nc4ccc(-c5ccccc5)nc43)cc2)CC1 [Example 336, N-(1-(4-(2-(2-aminopyridin-3-yl)-5-phenyl-3H-imidazo[4,5-b]pyridin-3-yl)benzyl)piperidin-4-yl)-2-cyano-N-methylpyrimidine-4-carboxamide]
18 | < 15 | N#Cc1ncnc(N[C@@H]2CCCN(Cc3ccc(-n4c(-c5cccnc5N)nc5ccc(-c6ccccc6)nc54)cc3)C2)n1 [Example 337, (R)-4-((1-(4-(2-(2-Aminopyridin-3-yl)-5-phenyl-3H-imidazo[4,5-b]pyridin-3-yl)benzyl)piperidin-3-yl)amino)-1,3,5-triazine-2-carbonitrile]
19 | 15 to 60 | N#Cc1ncnc(N2C[C@@H]3C[C@H]2CN3Cc2ccc(-n3c(-c4cccnc4N)nc4ccc(-c5ccccc5)nc43)cc2)n1 [Example 338, 4-((1S,4S)-5-(4-(2-(2-Aminopyridin-3-yl)-5-phenyl-3H-imidazo[4,5-b]pyridin-3-yl)benzyl)-2,5-diazabicyclo[2.2.1]heptan-2-yl)-1,3,5-triazine-2-carbonitrile]
20 | 15 to 60 | N#Cc1nccc(N2C[C@H]3CN(Cc4ccc(-n5c(-c6cccnc6N)nc6ccc(-c7ccccc7)nc65)cc4)C[C@H]3C2)n1 [Example 339, 4-((3aR,6aS)-5-(4-(2-(2-aminopyridin-3-yl)-5-phenyl-3H-imidazo[4,5-b]pyridin-3-yl)benzyl)hexahydropyrrolo[3,4-c]pyrrol-2(1H)-yl)pyrimidine-2-carbonitrile]
21 | < 15 | N#Cc1ncnc(N2C[C@H]3CN(Cc4ccc(-n5c(-c6cccnc6N)nc6ccc(-c7ccccc7)nc65)cc4)C[C@H]3C2)n1 [Example 340, 4-((3aR,6aS)-5-(4-(2-(2-Aminopyridin-3-yl)-5-phenyl-3H-imidazo[4,5-b]pyridin-3-yl)benzyl)hexahydropyrrolo[3,4-c]pyrrol-2(1H)-yl)-1,3,5-triazine-2-carbonitrile]
22 | < 15 | N#Cc1nccc(N2C[C@H]3CN(Cc4ccc(-n5c(-c6cccnc6N)nc6ccc(-c7ccccc7)nc65)cc4)C[C@@H]3C2)n1 [Example 341, 4-((3aR,6aR)-5-(4-(2-(2-aminopyridin-3-yl)-5-phenyl-3H-imidazo[4,5-b]pyridin-3-yl)benzyl)hexahydropyrrolo[3,4-c]pyrrol-2(1H)-yl)pyrimidine-2-carbonitrile]
23 | 15 to 60 | N#Cc1nccc(N2CCN(Cc3ccc(-n4c(-c5cccnc5N)nc5ccc(-c6ccc(Cl)cc6)nc54)cc3)CC2)n1 [Example 342, 4-(4-(4-(2-(2-Aminopyridin-3-yl)-5-(4-chlorophenyl)-3H-imidazo[4,5-b]pyridin-3-yl)benzyl)piperazin-1-yl)pyrimidine-2-carbonitrile]
24 | 15 to 60 | Cn1ccc(-c2ccc3nc(-c4cccnc4N)n(-c4ccc(CN5CCN(c6ccnc(C#N)n6)CC5)cc4)c3n2)cc1=O [Example 349, 4-(4-(4-(2-(2-Aminopyridin-3-yl)-5-(1-methyl-2-oxo-1,2-dihydropyridin-4-yl)-3H-imidazo[4,5-b]pyridin-3-yl)benzyl)piperazin-1-yl)pyrimidine-2-carbonitrile]
25 | 15 to 60 | N#Cc1ccnc(N2CCN(Cc3ccc(-n4c(-c5cccnc5N)nc5ccc(C6CC6)nc54)cc3)CC2)n1 [Example 350, 2-(4-(4-(2-(2-Aminopyridin-3-yl)-5-cyclopropyl-3H-imidazo[4,5-b]pyridin-3-yl)benzyl)piperazin-1-yl)pyrimidine-4-carbonitrile]
26 | 15 to 60 | N#Cc1ccnc(NC2CCN(Cc3ccc(-n4c(-c5cccnc5N)nc5ccc(C6CC6)nc54)cc3)CC2)n1 [Example 351, 2-((1-(4-(2-(2-Aminopyridin-3-yl)-5-cyclopropyl-3H-imidazo[4,5-b]pyridin-3-yl)benzyl)piperidin-4-yl)amino)pyrimidine-4-carbonitrile]
